Measurements taken from paper PMC7180948, “New Insights into 4-Anilinoquinazolines as Inhibitors of Cardiac Troponin I–Interacting Kinase (TNNi3K)” (Molecules, 2020).

Tests used:
Assay in all cases: biochemical
Design in all cases: KINOMEscan competition binding panel (Eurofins DiscoverX), single concentration, percent inhibition
Settings in all cases: read-out: 15 at 1 µM % inhibition
GRK2 = GRK2 (Homo sapiens, UniProt P25098)
In short: (§1)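 Compounds were submitted at 1 µM to a KINOMEscan assay covering more than 400 human kinases. The screen served to define the selectivity profile.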

PKN1 = PKN1 (Homo sapiens, UniProt Q16512)
In short: as §1

FLT1 = FLT1 (Homo sapiens, UniProt P17948)
In short: as §1

EGFR(S752-I759del) = EGFR(S752-I759del) (Homo sapiens, UniProt P00533, DEL752-759)
In short: as §1

VRK2 = VRK2 (Homo sapiens, UniProt Q86Y07)
In short: as §1

TNK2 = TNK2 (Homo sapiens, UniProt Q07912)
In short: as §1

CAMK1 = CAMK1 (Homo sapiens, UniProt Q14012)
In short: as §1

[1] = molecular target: T1, RSK3(Kin.Dom.1-N-terminal) (Homo sapiens, UniProt Q15349)
T1 construct: gene RPS6KA2; Kin.Dom.1-N-terminal
In short: as §1

CSK = CSK (Homo sapiens, UniProt P41240)
In short: as §1

NEK2 = NEK2 (Homo sapiens, UniProt P51955)
In short: as §1

EPHB4 = EPHB4 (Homo sapiens, UniProt P54760)
In short: as §1

DAPK1 = DAPK1 (Homo sapiens, UniProt P53355)
In short: as §1

PIK3C2G = PIK3C2G (Homo sapiens, UniProt O75747)
In short: as §1

FLT3(ITD,F691L) = FLT3(ITD,F691L) (Homo sapiens, UniProt P36888, F691L/ITD)
In short: as §1

YES = molecular target: T2, YES (Homo sapiens, UniProt P07947)
T2 construct: gene YES1
In short: as §1

[2] = molecular target: T3, RPS6KA4(Kin.Dom.1-N-terminal) (Homo sapiens, UniProt O75676)
T3 construct: Kin.Dom.1-N-terminal
In short: as §1

AXL = AXL (Homo sapiens, UniProt P30530)
In short: as §1

HIPK2 = HIPK2 (Homo sapiens, UniProt Q9H2X6)
In short: as §1

ASK2 = molecular target: T4, ASK2 (Homo sapiens, UniProt O95382)
T4 construct: gene MAP3K6
In short: as §1

DRAK1 = molecular target: T5, DRAK1 (Homo sapiens, UniProt Q9UEE5)
T5 construct: gene STK17A
In short: as §1

IGF1R = IGF1R (Homo sapiens, UniProt P08069)
In short: as §1

FLT3(D835Y) = FLT3(D835Y) (Homo sapiens, UniProt P36888, D835Y)
In short: as §1

PRKCQ = PRKCQ (Homo sapiens, UniProt Q04759)
In short: as §1

TEC = TEC (Homo sapiens, UniProt P42680)
In short: as §1

Sequence of TEC (P42680 whole entry): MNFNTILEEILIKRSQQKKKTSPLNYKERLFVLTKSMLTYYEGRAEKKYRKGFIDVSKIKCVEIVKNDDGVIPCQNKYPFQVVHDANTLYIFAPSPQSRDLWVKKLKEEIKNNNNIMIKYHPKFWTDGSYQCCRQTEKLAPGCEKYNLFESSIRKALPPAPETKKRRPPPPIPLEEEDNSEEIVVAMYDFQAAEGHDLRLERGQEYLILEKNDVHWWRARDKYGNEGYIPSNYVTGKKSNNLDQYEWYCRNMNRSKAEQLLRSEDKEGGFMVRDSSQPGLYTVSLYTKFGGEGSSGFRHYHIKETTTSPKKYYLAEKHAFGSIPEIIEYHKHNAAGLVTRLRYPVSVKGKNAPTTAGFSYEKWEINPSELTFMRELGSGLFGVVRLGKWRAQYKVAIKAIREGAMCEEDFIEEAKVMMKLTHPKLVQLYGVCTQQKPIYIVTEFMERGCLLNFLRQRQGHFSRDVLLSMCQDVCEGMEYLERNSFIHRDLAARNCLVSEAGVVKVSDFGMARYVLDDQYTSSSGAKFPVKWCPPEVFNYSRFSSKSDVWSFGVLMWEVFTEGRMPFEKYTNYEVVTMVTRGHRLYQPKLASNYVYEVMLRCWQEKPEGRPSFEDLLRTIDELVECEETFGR
Sequence of PRKCQ (Q04759 whole entry): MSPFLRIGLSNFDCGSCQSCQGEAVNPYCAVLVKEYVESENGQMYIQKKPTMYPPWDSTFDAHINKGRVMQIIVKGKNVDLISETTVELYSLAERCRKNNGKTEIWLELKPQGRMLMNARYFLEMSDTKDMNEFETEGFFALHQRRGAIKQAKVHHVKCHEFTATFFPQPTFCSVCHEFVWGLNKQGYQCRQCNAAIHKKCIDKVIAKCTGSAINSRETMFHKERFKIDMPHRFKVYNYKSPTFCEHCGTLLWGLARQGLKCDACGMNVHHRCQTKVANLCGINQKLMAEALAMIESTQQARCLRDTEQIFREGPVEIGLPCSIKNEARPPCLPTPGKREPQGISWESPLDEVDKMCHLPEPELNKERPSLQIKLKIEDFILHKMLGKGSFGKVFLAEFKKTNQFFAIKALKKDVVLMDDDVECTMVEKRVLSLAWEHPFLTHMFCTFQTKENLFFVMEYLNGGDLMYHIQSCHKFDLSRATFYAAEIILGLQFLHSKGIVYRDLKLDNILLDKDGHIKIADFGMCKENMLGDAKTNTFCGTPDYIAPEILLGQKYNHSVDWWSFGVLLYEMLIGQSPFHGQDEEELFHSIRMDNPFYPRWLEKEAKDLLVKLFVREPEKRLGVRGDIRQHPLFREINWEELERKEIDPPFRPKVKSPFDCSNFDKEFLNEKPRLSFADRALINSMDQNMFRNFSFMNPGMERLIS
Sequence of VRK2 (Q86Y07 whole entry): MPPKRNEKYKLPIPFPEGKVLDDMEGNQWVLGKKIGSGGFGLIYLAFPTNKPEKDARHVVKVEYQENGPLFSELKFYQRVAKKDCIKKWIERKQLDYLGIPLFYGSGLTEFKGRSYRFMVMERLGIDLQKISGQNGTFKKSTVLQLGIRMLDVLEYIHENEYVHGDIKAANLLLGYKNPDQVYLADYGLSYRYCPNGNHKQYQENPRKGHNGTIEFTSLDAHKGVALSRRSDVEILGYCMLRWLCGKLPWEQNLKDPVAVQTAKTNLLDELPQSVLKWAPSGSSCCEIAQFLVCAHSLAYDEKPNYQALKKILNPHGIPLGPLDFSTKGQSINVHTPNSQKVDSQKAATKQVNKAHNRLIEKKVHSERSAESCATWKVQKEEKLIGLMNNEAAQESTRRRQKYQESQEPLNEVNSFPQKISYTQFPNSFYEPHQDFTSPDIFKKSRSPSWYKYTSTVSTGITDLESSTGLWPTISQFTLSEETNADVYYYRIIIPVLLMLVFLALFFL
T2 sequence (P07947 whole entry): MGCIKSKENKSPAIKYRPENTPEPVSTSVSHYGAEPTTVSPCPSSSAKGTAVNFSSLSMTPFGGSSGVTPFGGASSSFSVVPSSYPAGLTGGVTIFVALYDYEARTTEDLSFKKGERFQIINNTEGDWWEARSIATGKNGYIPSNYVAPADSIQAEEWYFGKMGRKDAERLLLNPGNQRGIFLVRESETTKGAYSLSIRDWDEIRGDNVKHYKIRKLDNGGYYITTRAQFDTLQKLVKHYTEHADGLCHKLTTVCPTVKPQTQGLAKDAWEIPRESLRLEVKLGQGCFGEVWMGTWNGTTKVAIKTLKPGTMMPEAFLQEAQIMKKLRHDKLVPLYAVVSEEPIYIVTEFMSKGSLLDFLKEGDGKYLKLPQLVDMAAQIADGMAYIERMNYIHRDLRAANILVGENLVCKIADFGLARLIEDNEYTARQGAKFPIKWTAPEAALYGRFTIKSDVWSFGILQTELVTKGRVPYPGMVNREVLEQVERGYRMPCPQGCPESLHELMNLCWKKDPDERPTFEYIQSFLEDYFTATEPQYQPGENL
Sequence of DAPK1 (P53355 whole entry): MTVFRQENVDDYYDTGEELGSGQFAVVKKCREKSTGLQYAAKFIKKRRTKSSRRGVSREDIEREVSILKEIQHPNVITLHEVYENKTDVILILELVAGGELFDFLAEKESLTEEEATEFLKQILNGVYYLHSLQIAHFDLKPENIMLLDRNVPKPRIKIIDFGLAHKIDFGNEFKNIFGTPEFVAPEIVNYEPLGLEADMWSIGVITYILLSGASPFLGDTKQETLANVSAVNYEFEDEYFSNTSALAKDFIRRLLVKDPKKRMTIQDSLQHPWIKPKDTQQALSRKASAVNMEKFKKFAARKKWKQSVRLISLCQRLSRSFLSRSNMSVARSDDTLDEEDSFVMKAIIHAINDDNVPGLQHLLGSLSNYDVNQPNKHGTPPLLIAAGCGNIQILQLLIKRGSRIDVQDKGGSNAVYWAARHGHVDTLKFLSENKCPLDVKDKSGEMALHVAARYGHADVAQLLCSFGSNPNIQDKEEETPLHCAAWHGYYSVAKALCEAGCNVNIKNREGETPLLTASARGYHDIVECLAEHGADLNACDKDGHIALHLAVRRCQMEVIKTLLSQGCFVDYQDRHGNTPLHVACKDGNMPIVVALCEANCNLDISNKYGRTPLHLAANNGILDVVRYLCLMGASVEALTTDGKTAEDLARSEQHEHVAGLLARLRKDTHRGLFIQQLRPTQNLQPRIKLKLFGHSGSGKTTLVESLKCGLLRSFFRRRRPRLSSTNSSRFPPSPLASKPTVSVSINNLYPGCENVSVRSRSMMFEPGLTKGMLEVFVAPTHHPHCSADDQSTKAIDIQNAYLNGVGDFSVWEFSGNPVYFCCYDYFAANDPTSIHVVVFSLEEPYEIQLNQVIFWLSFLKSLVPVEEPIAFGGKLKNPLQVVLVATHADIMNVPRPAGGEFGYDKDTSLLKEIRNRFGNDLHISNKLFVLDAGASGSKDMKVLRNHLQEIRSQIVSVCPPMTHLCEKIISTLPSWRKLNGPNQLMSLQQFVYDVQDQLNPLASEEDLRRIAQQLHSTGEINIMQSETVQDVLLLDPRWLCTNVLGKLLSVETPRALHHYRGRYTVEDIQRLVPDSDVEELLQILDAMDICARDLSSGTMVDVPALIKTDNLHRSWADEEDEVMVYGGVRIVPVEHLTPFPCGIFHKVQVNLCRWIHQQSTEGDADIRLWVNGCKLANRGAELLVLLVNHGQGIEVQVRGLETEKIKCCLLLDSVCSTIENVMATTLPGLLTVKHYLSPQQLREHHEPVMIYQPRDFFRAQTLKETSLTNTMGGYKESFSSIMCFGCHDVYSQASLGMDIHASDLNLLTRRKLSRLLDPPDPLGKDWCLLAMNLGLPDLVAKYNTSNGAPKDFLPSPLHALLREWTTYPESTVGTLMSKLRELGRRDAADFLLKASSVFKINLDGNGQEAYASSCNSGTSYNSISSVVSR
Sequence of CSK (P41240 whole entry): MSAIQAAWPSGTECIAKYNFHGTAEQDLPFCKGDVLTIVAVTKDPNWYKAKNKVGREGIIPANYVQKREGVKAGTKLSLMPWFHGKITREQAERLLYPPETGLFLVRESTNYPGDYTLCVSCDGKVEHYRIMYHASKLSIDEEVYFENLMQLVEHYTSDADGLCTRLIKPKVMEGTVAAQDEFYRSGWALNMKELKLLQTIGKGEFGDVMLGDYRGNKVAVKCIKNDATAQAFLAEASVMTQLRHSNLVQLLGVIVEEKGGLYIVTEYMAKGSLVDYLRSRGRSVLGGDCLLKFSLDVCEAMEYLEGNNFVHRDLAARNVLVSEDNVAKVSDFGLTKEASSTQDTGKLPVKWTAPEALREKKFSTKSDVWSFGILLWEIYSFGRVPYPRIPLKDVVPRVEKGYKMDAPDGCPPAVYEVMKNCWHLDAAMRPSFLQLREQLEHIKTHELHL
Sequence of NEK2 (P51955 whole entry): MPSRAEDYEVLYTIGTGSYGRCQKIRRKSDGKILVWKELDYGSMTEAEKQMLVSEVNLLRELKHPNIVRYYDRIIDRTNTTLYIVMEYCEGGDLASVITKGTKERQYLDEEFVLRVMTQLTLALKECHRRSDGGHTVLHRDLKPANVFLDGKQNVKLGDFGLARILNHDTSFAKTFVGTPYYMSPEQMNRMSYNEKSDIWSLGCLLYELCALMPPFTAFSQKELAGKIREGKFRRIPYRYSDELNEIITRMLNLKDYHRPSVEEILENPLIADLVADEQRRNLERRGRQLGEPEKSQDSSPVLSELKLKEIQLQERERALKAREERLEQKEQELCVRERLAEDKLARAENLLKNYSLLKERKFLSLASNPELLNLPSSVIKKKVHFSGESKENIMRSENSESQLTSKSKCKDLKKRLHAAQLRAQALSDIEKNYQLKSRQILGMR

CNS(=O)(=O)c1ccc(N(C)C)c(Nc2nc(C)nc3cc(OC)c(OC)cc23)c1 [compound 15, 3-((6,7-dimethoxy-2-methylquinazolin-4-yl)amino)-4-(dimethylamino)-N-methylbenzenesulfonamide]
inhibition at 1 µM (GRK2): 10%
inhibition at 1 µM (PKN1): 5%
inhibition at 1 µM (FLT1): 0%
inhibition at 1 µM (EGFR(S752-I759del)): 9%
inhibition at 1 µM (VRK2): 12%
inhibition at 1 µM (TNK2): 0%
inhibition at 1 µM (CAMK1): 0%
inhibition at 1 µM [1]: 11%
inhibition at 1 µM (CSK): 2%
inhibition at 1 µM (NEK2): 1%
inhibition at 1 µM (EPHB4): 0%
inhibition at 1 µM (DAPK1): 7%
inhibition at 1 µM (PIK3C2G): 22%
inhibition at 1 µM (FLT3(ITD,F691L)): 0%
inhibition at 1 µM (YES): 0%
inhibition at 1 µM [2]: 3%
inhibition at 1 µM (AXL): 9%
inhibition at 1 µM (HIPK2): 9%
inhibition at 1 µM (ASK2): 0%
inhibition at 1 µM (DRAK1): 0%
inhibition at 1 µM (IGF1R): 0%
inhibition at 1 µM (FLT3(D835Y)): 4%
inhibition at 1 µM (PRKCQ): 16%
inhibition at 1 µM (TEC): 13%
